Counter-ions that a name gives are not always drawn.

From patent US9162979B2, “1,5-Diary1-2-alkylpyrrole-3-substituted nitro esters, selective COX-2 inhibitors and nitric oxide donors” (ROTTAPHARM BIOTECH S.R.L., priority 2010, dated 2015) come the findings set out here.

In one series the target is COX-2 (Mus musculus (Mouse), UniProt Q05769). The series can be described thus: Evaluation of COX-2 activity: PGE2 production in LPS-stimulated J774 cells. The series is classed as cell-based, murine. Conditions: J774 cells stimulated 24 hours with LPS 10 μg/mL; PGE2 by radio-immunological assay; read-out: Cyclooxygenase inhibition COX-2 IC50. The method, then: The murine monocyte/macrophage cell line J774 is grown in Dulbecco's modified Eagle's medium (DMEM), enriched with glutamine (2 mM), HEPES (25 mM), penicillin (100 u/mL), streptomycin (100 μg/mL), 10% of fetal bovine serum (FBS) and 1.2% of sodium pyruvate. […] Just before the experiments, the culture medium is replaced with fresh medium without FBS to avoid interference during the radio-immunological phase and the cells are stimulated as described below.
Sequence of COX-2 (Q05769 18-604): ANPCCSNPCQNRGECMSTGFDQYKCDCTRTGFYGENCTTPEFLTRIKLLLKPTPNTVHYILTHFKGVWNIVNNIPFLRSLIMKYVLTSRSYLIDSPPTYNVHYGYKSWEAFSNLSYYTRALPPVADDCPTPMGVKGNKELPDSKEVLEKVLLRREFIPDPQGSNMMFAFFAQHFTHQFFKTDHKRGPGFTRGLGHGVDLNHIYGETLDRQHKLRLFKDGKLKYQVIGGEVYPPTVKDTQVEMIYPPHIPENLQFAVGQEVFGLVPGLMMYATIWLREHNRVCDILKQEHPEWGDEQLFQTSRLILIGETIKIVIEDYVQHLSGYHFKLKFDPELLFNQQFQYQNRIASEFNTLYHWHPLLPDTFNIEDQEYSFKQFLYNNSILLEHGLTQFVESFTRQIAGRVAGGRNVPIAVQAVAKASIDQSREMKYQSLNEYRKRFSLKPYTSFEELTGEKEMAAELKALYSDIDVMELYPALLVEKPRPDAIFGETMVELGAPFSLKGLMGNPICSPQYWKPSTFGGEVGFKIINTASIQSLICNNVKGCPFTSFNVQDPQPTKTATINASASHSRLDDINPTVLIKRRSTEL
The supernatants are collected for evaluating, by means of radio-immunological assays, the amount of PGE2 produced.
In each group of experiments, wells were used in triplicate for the different treatment conditions. […] The data were evaluated using the sigmoidal dose-response equation (variable slope) (GraphPad software). IC50 and the 95% precision intervals were calculated with the program GraphPad Instat (GraphPad software).

For series [1], the system named is isolated rings of thoracic aorta. The series can be described thus: Evaluation of release of NO: vasorelaxing activity on endothelium-denuded aortic rings contracted with KCl. Also noted: species or system rat. Conditions: Rattus norvegicus; relative to contractile tone induced by 20 mM KCl; 1 nM-10 μM; read-out: NO release properties Emax (maximum vasorelaxing effect). The method, then: The activity of the compounds was evaluated on isolated rings of thoracic aorta of normotensive male Wistar rats (250-350 g). After light anaesthesia with ether, the rats were sacrificed by cervical dislocation and exsanguination. The aortas were immediately excised, extraneous tissues were removed and the endothelial layer was removed by gently rubbing the surface with a hypodermic needle. Rings of aorta with a width of 5 mm were suspended, with a preload of 2 g, in 20-ml organ baths, containing a solution of “Tyrode” (composition of the saline solution in mM: NaCl 136.8; KCl 2.95; CaCl2 1.80; MgSO4 1.05; NaH2PO4 0.41; NaHCO3 11.9; glucose 5.5), thermostatically controlled at 37° C. and kept in an atmosphere of O2 (95%) and CO2 (5%). […] were recorded by means of an isometric transducer (FTO3 Erba), connected to a microdynamometer (Buxco Electronics).
60 minutes after preparation, removal of the endothelium was confirmed by acetylcholine (ACH) (10 μM) treatment of the vascular rings pre-contracted with KCl (20 mM). Relaxation of less than 10% of the contraction induced by KCl was considered as representative of acceptable removal of the endothelial layer, whereas organs displaying relaxation ≧10% were discarded. 40 minutes after confirmation of complete removal of the endothelium, the aortas were contracted by treatment with a single dose of KCl (20 mM) and after the contraction reached a stable plateau, increasing cumulative concentrations (with progressive increments of 3 times) of the test compounds (1 nM-10 μM) were added. It was found from preliminary experiments that the contraction induced by KCl (20 mM) remained stable in a tonic state for at least 40 minutes. The same experiments were performed in the presence of a well-known inhibitor of guanylate cyclase: ODQ 1 μM, which was incubated in aorta preparations after confirmation of removal of the endothelium.
Analysis of the results. The vasorelaxing activity was evaluated as a percentage (%) relative to the contractile tone induced by 20 mM KCl. The pharmacodynamic efficacy parameter (Emax) corresponds to the maximum vasorelaxing effect induced by the molecule tested, expressed as percentage relative to the contractile tone induced by 20 mM KCl. When the limit concentration of 10 μM (the highest concentration administered) of the test compounds has not reached the maximum effect, the efficacy parameter (Emax) corresponds to the vasorelaxing effect induced by the limit concentration (expressed as percentage relative to the contractile tone induced by 20 mM KCl). The pharmacodynamic parameter of potency of the compounds was expressed as pIC50 calculated as the negative logarithm of the molar concentration of test compound that reduces the contractile tone induced by 20 mM KCl by half. […] The parameters of efficacy and potency were expressed as mean±standard error, for 5-10 experiments. The experimental data were analysed by the program GraphPad Prism 3.0.

Usually melting point stands for the temperature, or range, at which the solid turns liquid. Turning to `Cc1c(CCOCCO[N+](=O)[O-])cc(-c2ccc(S(C)(=O)=O)cc2)n1-c1cccc(F)c1` (as salt: nitrate) [Example 38, 2-[2-[2-(1-(3-Fluorophenyl)-2-methyl-5-(4-methylsulphonylphenyl)-1H-pyrrol-3-yl]ethoxy]ethyl Nitrate], the melting point was 94 to 97 °C.

Compound `Cc1c(CCOCCO[N+](=O)[O-])cc(-c2ccc(S(C)(=O)=O)cc2)n1-c1ccc(F)c(F)c1` (as salt: nitrate) [Example 39, 2-[2-[2-(1-(3,4-Difluorophenyl)-2-methyl-5-(4-methylsulphonylphenyl)-1H-pyrrol-3-yl]ethoxy]ethyl Nitrate] displayed a melting point of 93 to 96 °C.

`Cc1c(CCOCCCO[N+](=O)[O-])cc(-c2ccc(S(C)(=O)=O)cc2)n1-c1ccccc1` (as salt: nitrate) [Example 40, 3-[2-[2-(1-Phenyl-2-methyl-5-(4-methylsulphonylphenyl)-1H-pyrrol-3-yl)ethoxy]propyl Nitrate] gave a melting point of 131 to 133 °C.

`Cc1c(CCOCCCO[N+](=O)[O-])cc(-c2ccc(S(C)(=O)=O)cc2)n1-c1ccc(F)cc1` (as salt: nitrate) [Example 41, 3-[2-[2-(1-(4-Fluorophenyl)-2-methyl-5-(4-methylsulphonylphenyl)-1H-pyrrol-3-yl)]ethoxy]propyl Nitrate] had a melting point of 114 to 116 °C.

Turning to `Cc1c(CCOCCCO[N+](=O)[O-])cc(-c2ccc(S(C)(=O)=O)cc2)n1-c1cccc(F)c1` (as salt: nitrate) [Example 42, 3-[2-(1-(3-Fluorophenyl)-2-methyl-5-(4-methylsulphonylphenyl)-1H-pyrrol-3-yl)ethoxy]propyl Nitrate], the melting point was 111 to 113 °C.

The compound `Cc1c(C(N)C(=O)OCCO)cc(-c2ccc(S(C)(=O)=O)cc2)n1-c1ccc(F)cc1` (racemic) [Example 16-II, (R,S)-2-(Hydroxy)ethyl-[2-amino-2-[1-(4-fluorophenyl)-2-methyl-5-(4-methylsulphonylphenyl)-pyrrol-3-yl]]-acetate] had a melting point of 102 °C.

With `Cc1c(C(N)C(=O)OCCO)cc(-c2ccc(S(C)(=O)=O)cc2)n1-c1cccc(F)c1` (racemic) [Example 17-II, (R,S)-2-(Hydroxy)ethyl-[2-amino-2-[1-(3-fluorophenyl)-2-methyl-5-(4-methylsulphonylphenyl)-1H-pyrrol-3-yl]]-acetate], the melting point was found to be 102 °C.

As to `Cc1c(C(N)C(=O)OCCCO[N+](=O)[O-])cc(-c2ccc(S(C)(=O)=O)cc2)n1-c1cccc(F)c1` (racemic) [Example 19, (R,S)-3-(Nitrooxy)propyl-[2-amino-2-[1-(3-fluorophenyl)-2-methyl-5-(4-methylsulphonylphenyl)-1H-pyrrol-3-yl]]-acetate], the melting point stood at 117 °C.

On to `Cc1c(C(N)C(=O)OCCCCO[N+](=O)[O-])cc(-c2ccc(S(C)(=O)=O)cc2)n1-c1cccc(F)c1` (racemic) [Example 21, (R,S)-4-(Nitrooxy)butyl-[2-amino-2-[1-(3-fluorophenyl)-2-methyl-5-(4-methylsulphonylphenyl)-1H-pyrrol-3-yl]]-acetate], for which the melting point is 110 °C.

One may read the IC50 as the concentration that gives 50% inhibition. As for `Cc1c(CC(=O)OCCO)cc(-c2ccc(S(C)(=O)=O)cc2)n1-c1ccc(F)cc1` [Example 2-II, 2-Hydroxyethyl-[2-(1-(4-fluorophenyl)-2-methyl-5-(4-methylsulphonylphenyl)-1H-pyrrol-3-yl)]acetate], the melting point is 129 to 131 °C. Also, at COX-2, the 50% inhibitory concentration (IC50) stood at 89 nM.

`Cc1c(CC(=O)OCCO)cc(-c2ccc(S(C)(=O)=O)cc2)n1-c1cccc(F)c1` [Example 3-II] returned a melting point of 115 °C. At COX-2, the half-maximal inhibitory concentration (IC50) came out at 85 nM.

In the case of `COc1ccc(-n2c(-c3ccc(S(C)(=O)=O)cc3)cc(CC(=O)OCCO)c2C)cc1` [Example 4-II, 2-(Hydroxy)ethyl-[1-(4-methoxyphenyl)-2-methyl-5-(4-methylsulphonylphenyl)-1H-pyrrol-3-yl]-acetate], the melting point came out at 105 °C. Further, the IC50 at COX-2 is 1100 nM.

Compound `Cc1c(CC(=O)OCCCO[N+](=O)[O-])cc(-c2ccc(S(C)(=O)=O)cc2)n1-c1ccccc1` [Example 6] showed a melting point of 116 to 118 °C.

The compound `Cc1c(CC(=O)OCCCO[N+](=O)[O-])cc(-c2ccc(S(C)(=O)=O)cc2)n1-c1ccc(F)cc1` [Example 7, 3-(Nitrooxy)propyl 2-[1-(4-fluorophenyl)-2-methyl-5-(4-methylsulphonylphenyl)-1H-pyrrol-3-yl]acetate] had a melting point of 126 to 128 °C.

Broadly, the Emax is the maximal effect, on the per cent scale that the assay sets. For the compound `Cc1c(CC(=O)OCCCCO[N+](=O)[O-])cc(-c2ccc(S(C)(=O)=O)cc2)n1-c1ccc(F)cc1` [Example 11, 4-(Nitrooxy)butyl-2-[1-(4-fluorophenyl)-2-methyl-5-(4-methylsulphonylphenyl)-1H-pyrrol-3-yl]acetate], the melting point is 102 to 104 °C. For the same compound, the maximum response (Emax) in series [1] worked out at 40 ± 8%.

In turn, `COc1ccc(-n2c(-c3ccc(S(C)(=O)=O)cc3)cc(CC(=O)OCCCCO[N+](=O)[O-])c2C)cc1` [Example 13, 4-(Nitrooxy)butyl-2-[1-(4-methoxyphenyl)-2-methyl-5-(4-methylsulphonylphenyl)-1H-pyrrol-3-yl]acetate] displayed a melting point of 109 °C. In addition, on COX-2, the half-inhibitory concentration (IC50) came to 550 nM.

With `Cc1c(CC(=O)NCCO)cc(-c2ccc(S(C)(=O)=O)cc2)n1-c1ccc(F)cc1` [Example 23-II, N-[(2-Hydroxy)ethyl]-2-[1-(4-fluorophenyl)-2-methyl-5-(4-methylsulphonylphenyl)-1H-pyrrol-3-yl]acetamide], the melting point worked out at 99 °C. Besides, on COX-2, the IC50 came to 300 nM.

As for `Cc1c(CC(=O)NCCCO[N+](=O)[O-])cc(-c2ccc(S(C)(=O)=O)cc2)n1-c1ccc(F)cc1` [Example 26, N-[(3-Nitroxy)propyl]-2-[1-(4-fluorophenyl)-2-methyl-5-(4-methylsulphonylphenyl)-1H-pyrrol-3-yl]acetamide], the melting point came out at 127 °C.

In the case of `Cc1c(CC(=O)NCCCO)cc(-c2ccc(S(C)(=O)=O)cc2)n1-c1ccc(F)cc1` [Example 26-II, N-[(3-Hydroxy)propyl]-2-[1-(4-fluorophenyl)-2-methyl-5-(4-methylsulphonylphenyl)-1H-pyrrol-3-yl]acetamide], the melting point was 105 °C. In addition, the half-inhibitory concentration (IC50) on COX-2 worked out at 68 nM.

`Cc1c(CC(=O)NCCCO[N+](=O)[O-])cc(-c2ccc(S(C)(=O)=O)cc2)n1-c1cccc(F)c1` [Example 27, N-[(3-Nitroxy)propyl]-2-[1-(3-fluorophenyl)-2-methyl-5-(4-methylsulphonylphenyl)-1H-pyrrol-3-yl]acetamide] yielded a melting point of 125 °C.

Turning to `Cc1c(CC(=O)NCCCO)cc(-c2ccc(S(C)(=O)=O)cc2)n1-c1cccc(F)c1` [Example 27-II, N-[(3-Hydroxy)propyl]-2-[1-(3-fluorophenyl)-2-methyl-5-(4-methylsulphonylphenyl)-1H-pyrrol-3-yl]acetamide], the melting point is 102 °C. At COX-2, the IC50 amounted to 14 nM.

Take `Cc1c(CCOCCCO[N+](=O)[O-])cc(-c2ccc(S(C)(=O)=O)cc2)n1-c1ccccc1` [Example 40, 3-[2-[2-(1-Phenyl-2-methyl-5-(4-methylsulphonylphenyl)-1H-pyrrol-3-yl)ethoxy]propyl Nitrate]: the half-inhibitory concentration (IC50) at COX-2 worked out at 15 nM. For the same compound, in series [1], the Emax stood at 48.2 ± 0.5%.
